Publication PMC6736568, “Discovery of Novel Anti-cryptosporidial Activities From Natural Products by in vitro High-Throughput Phenotypic Screening” (Frontiers in Microbiology, 2019)
Like-named read-outs stand apart in the source and are kept apart here.

Experiments:
Cryptosporidium parvum = assay: qRT-PCR assay of the growth of C. parvum in vitro in HCT-8 host cells (primary and secondary screening, EC50); type: cell-based; conditions: Cryptosporidium parvum, HCT-8; for inhibition at 10 µM: primary screening at 10 uM, read-out: Inhibition (%); for inhibition at 3.3 µM: secondary screening at 3.3 uM, read-out: % Inhibition (3.3 uM)
in vitro = conditions: for cytotoxicity at 41 h, 10 µM: human
[1] = primary screening at 10 uM, treated vs control

| Structure (SMILES) | inhibition at 10 µM (Cryptosporidium parvum) | cytotoxicity at 41 h, 10 µM (in vitro) | Hs18S ΔCT (HCT-8 host cells (Hs18S); human, 41 h, 10 μM) | cytotoxicity at 10 µM (in vitro) | Hs18S ΔCT (HCT-8 host cells (Hs18S); [1]) | inhibition at 3.3 µM (Cryptosporidium parvum) |
| --- | --- | --- | --- | --- | --- | --- |
| Nc1nc2ncc(CNc3ccc(C(=O)N[C@@H](CCC(=O)O)C(=O)O)cc3)nc2c(=O)[nH]1 [FOLIC ACID] | 3.63% | 1.3% | 0.02 | – | – | – |
| COc1ccc(-c2coc3cc(O)ccc3c2=O)cc1 [FORMONONETIN] | 13.2% | -53.6% | -0.62 | – | – | – |
| COc1cc2ccc(=O)oc2c(OC)c1OC [FRAXIDIN METHYL ETHER] | -37.3% | – | – | -39.5% | -0.48 | – |
| C[C@H]1C(=O)CC[C@@H]2[C@]1(C)CC[C@H]1[C@@]2(C)CC[C@@]2(C)[C@@H]3CC(C)(C)CC[C@]3(C)CC[C@]12C [FRIEDELIN] | 20.8% | – | – | -17.6% | -0.23 | – |
| Cc1cc(O)c(C=O)c2c1C(=O)Oc1c(COC(=O)/C=C/C(=O)O)c(O)c(C(=O)O)c(C)c1O2 [FUMARPROTOCETRARIC ACID] | -5.48% | 6.9% | 0.10 | – | – | – |
| CC(=O)O[C@H]1C[C@@]2(C)[C@@H](C[C@@H](O)[C@H]3[C@@]4(C)CC[C@@H](O)[C@@H](C)[C@@H]4CC[C@@]32C)/C1=C(\CCC=C(C)C)C(=O)O [FUSIDIC ACID] | -82.8% | -23.2% | -0.30 | – | – | – |
| O=c1c(O)c(-c2ccccc2)oc2cc(O)cc(O)c12 [GALANGIN] | -14.9% | – | – | 23.6% | 0.39 | – |
| COc1ccc2c3c1O[C@H]1C[C@@H](O)C=C[C@@]31CCN(C)C2 [GALANTAMINE] | 2.66% | – | – | -26.2% | -0.34 | – |
| COC(=O)c1c(OC)cc2c(c1C)Oc1c(Cl)c(O)c(Cl)c(C)c1C(=O)O2 [GANGALEOIDIN] | -21.6% | -3.3% | -0.05 | – | – | – |
| CC(C)=CCCC1(C)C=Cc2c(O)c3c(c(CC=C(C)C)c2O1)OC12C(=CCCC1C(C)(C)O[C@@]2(C/C=C(\C)C(=O)O)C(=O)O)C3=O (stereo partly shown) [GARCINOLIC ACID] | -51.3% | 22% | 0.36 | – | – | – |
| COc1ccc(-c2cc(=O)c3c(O)c(OC)c(OC)c(OC)c3o2)cc1 [GARDENIN B] | 53.6% | 16% | 0.25 | – | – | – |
| CC(=O)O[C@@H]1C[C@H]2C(C)(C)C(=O)C=C[C@]2(C)[C@H]2CC[C@@]3(C)[C@H](c4ccoc4)OC(=O)[C@H]4O[C@]43[C@@]21C [GEDUNIN] | 6.58% | 1.2% | 0.02 | – | – | – |
| CN[C@@H]1[C@@H](O)[C@@H](O[C@@H]2[C@@H](O)[C@H](O[C@H]3O[C@H]([C@@H](C)O)[C@@H](O)[C@H](O)[C@H]3N)[C@@H](N)C[C@H]2N)OC[C@]1(C)O [GENETICIN] | -26.1% | – | – | 4.9% | 0.07 | – |
| O=c1c(-c2ccc(O)cc2)coc2cc(O)cc(O)c12 [GENISTEIN] | 6.85% | – | – | 12.7% | 0.20 | – |
| COc1cc(O)c2c(=O)cc(-c3ccc(O)cc3)oc2c1 [GENKWANIN] | -9.13% | – | – | -77.7% | -0.83 | – |
| C=C1C[C@]23C[C@@]1(O)CC[C@H]2[C@@]12C=C[C@H](O)[C@@](C)(C(=O)O1)[C@H]2[C@@H]3C(=O)O [GIBBERELLIC ACID] | 32.7% | – | – | 5.9% | 0.09 | – |
| C[C@@H]1C(=O)O[C@H]2C[C@@]34[C@H]5C[C@@H](C(C)(C)C)[C@]36[C@@H](OC(=O)[C@@H]6O)O[C@@]4(C(=O)O5)[C@]21O [GINKGOLIDE A] | 37.5% | – | – | 6.6% | 0.10 | – |

| Structure (SMILES) | inhibition at 10 µM (Cryptosporidium parvum) | cytotoxicity at 41 h, 10 µM (in vitro) | Hs18S ΔCT (HCT-8 host cells (Hs18S); human, 41 h, 10 μM) | cytotoxicity at 10 µM (in vitro) | Hs18S ΔCT (HCT-8 host cells (Hs18S); [1]) | inhibition at 3.3 µM (Cryptosporidium parvum) |
| --- | --- | --- | --- | --- | --- | --- |
| C[C@H]1O[C@@H](O[C@H]2[C@@H](O)C[C@H](O[C@H]3[C@@H](O)C[C@H](O[C@H]4CC[C@@]5(C)[C@H](CC[C@@H]6[C@@H]5CC[C@]5(C)[C@@H](C7=CC(=O)OC7)[C@@H](O)C[C@]65O)C4)O[C@@H]3C)O[C@@H]2C)C[C@H](O)[C@@H]1O [GITOXIN] | 35.4% | – | – | 5.4% | 0.08 | – |
| OC[C@@H](O)[C@@H](O[C@@H]1O[C@H](CO)[C@@H](O)[C@H](O)[C@H]1O)[C@H](O)[C@@H](O)CO [GLUCITOL-4-GUCOPYANOSIDE] | 4.89% | -14.4% | -0.19 | – | – | – |
| N[C@@H](C(=O)O)[C@@H](O)[C@H](O)[C@H](O)CO [GLUCOSAMINIC ACID] | -5.48% | 13.9% | 0.22 | – | – | – |
| N[C@@H](CCC(=O)N[C@@H](CS)C(=O)NCC(=O)O)C(=O)O [GLUTATHIONE] | 68.1% | -32% | -0.40 | – | – | -20% |
| C[C@H](CCC(=O)NCC(=O)O)[C@H]1CC[C@H]2[C@@H]3[C@H](O)C[C@@H]4C[C@H](O)CC[C@]4(C)[C@H]3C[C@H](O)[C@]12C [GLYCOCHOLIC ACID] | -58.4% | – | -0.31 | -23.7% | – | – |
| O=c1c(O)c(-c2ccc(O)c(O)c2)oc2c(O)c(O)cc(O)c12 [GOSSYPETIN] | -17.5% | – | – | -2.6% | -0.04 | – |
| Cc1cc2c(C(C)C)c(O)c(O)c(C=O)c2c(O)c1-c1c(C)cc2c(C(C)C)c(O)c(O)c(C=O)c2c1O [GOSSYPOL] | 21.4% | 26.6% | – | – | 0.45 | – |
| CN(C)Cc1c[nH]c2ccccc12 [GRAMINE] | -43.9% | -33.5% | – | – | -0.42 | – |
| COC1=CC(=O)C[C@@H](C)[C@]12Oc1c(Cl)c(OC)cc(OC)c1C2=O [GRISEOFULVIN] | 66% | 18.7% | 0.30 | – | – | 9% |
| CC(=O)O[C@@H]1[C@H]2CC[C@H]3[C@@](C)(O)[C@@H]4C[C@H](O)C(C)(C)[C@@]4(O)[C@H](O)C[C@@]13C[C@@]2(C)O [GR[…]] | 3.95% | – | – | -2.4% | -0.03 | – |
| COc1ccccc1O [GUAIACOL] | -32.9% | 1.6% | 0.02 | – | – | – |
| Cc1ccc(C(C)C)cc2c(C)ccc1-2 [GUAIAZULENE] | -38.2% | -27% | -0.34 | – | – | – |
| CC1=C(CCC(=O)O)c2cc3[nH]c(cc4nc(cc5[nH]c(cc1n2)c(C)c5C(C)O)C(C)=C4C(C)O)c(C)c3CCC(=O)O (stereo not shown) [HAEMATOPORPHYRIN] | 93.1% | 63.3% | 1.45 | – | – | 33% |
| Oc1cc2c(cc1O)C1c3ccc(O)c(O)c3OCC1(O)C2 (stereo not shown) [HAEMATOXYLIN] | -27.2% | 0.1% | 0.00 | – | – | – |
| COc1ccc2c3c([nH]c2c1)C(C)=NCC3 [HARMALINE] | -31.9% | – | – | 0.9% | 0.01 | – |
| Cc1nccc2c1[nH]c1ccccc12 [HARMANE] | -23.2% | – | – | 4.5% | 0.07 | – |
| COc1ccc2c(c1)[nH]c1c(C)nccc12 [HARMINE] | 82.2% | – | – | 28.6% | 0.49 | -62% |
